Results as given in patent publication US8871753B2, “Macrocyclic compounds and their use as kinase inhibitors” (Incyte Corporation, priority 2008, dated 2014).
Counter-ions that a name gives are not always drawn. Like-named read-outs stand apart in the source and are kept apart here.

How the values were obtained:
Assay type in all cases: biochemical
[1] = target: T1, human JAK1 (a.a. 837-1142) (Homo sapiens, UniProt P23458); experiment: In vitro JAK kinase assay (HTRF, phosphorylation of a biotinylated peptide), JAK1; conditions: read-out: JAK1 IC50
T1 construct: human JAK1 (a.a. 837-1142); His tag (N); made in house; host or cells: insect cells (baculovirus)
Outline: (§1)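 Kinase reactions ran at room temperature for 1 h with ATP matched per isoform (JAK1 90 μM, JAK2 30 μM, JAK3 3 μM). After an EDTA stop, the phosphorylated biotin-peptide was read by HTRF using Eu-Py20 and SA-APC after 40 min binding.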

[2] = target: T2, human JAK3 (a.a. 781-1124) (Homo sapiens, UniProt P52333); experiment: In vitro JAK kinase assay (HTRF, phosphorylation of a biotinylated peptide), JAK3
T2 construct: JAK3 (a.a. 781-1124); His tag (N); made in house; host or cells: insect cells (baculovirus)
Outline: as §1

[3] = target: T3, human JAK2 (a.a. 828-1132) (Homo sapiens, UniProt O60674); experiment: In vitro JAK kinase assay (HTRF, phosphorylation of a biotinylated peptide), JAK2
T3 construct: JAK2 (a.a. 828-1132); His tag (N); made in house; host or cells: insect cells (baculovirus)
Outline: as §1

[4] = target: T4, Recombinant Human Anaplastic Lymphoma Kinase (Homo sapiens, UniProt Q9UM73); experiment: ALK HTRF kinase assay
T4 construct: purchased Invitrogen, Carlsbad, Calif
Outline: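 TR-FRET read-out (Eu anti-pTyr antibody + streptavidin-APC) of biotin-peptide phosphorylation by recombinant human enzyme; IC50 by sigmoidal fit with top/bottom baselines and Hill slope.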

TYK2 = TYK2 (Homo sapiens, UniProt P29597); experiment: TYK2 kinase inhibition (Table A1)
[5] = method AA1 (90 μM ATP) or AA2 (1000 μM ATP), not stated per value
[6] = method AA1 (3 μM ATP) or AA2 (1000 μM ATP), not stated per value
[7] = method AA1 (30 μM ATP) or AA2 (1000 μM ATP), not stated per value
[8] = compound at 500 nM or 1 mM, 90 μM ATP

Chain of TYK2 (P29597 whole entry): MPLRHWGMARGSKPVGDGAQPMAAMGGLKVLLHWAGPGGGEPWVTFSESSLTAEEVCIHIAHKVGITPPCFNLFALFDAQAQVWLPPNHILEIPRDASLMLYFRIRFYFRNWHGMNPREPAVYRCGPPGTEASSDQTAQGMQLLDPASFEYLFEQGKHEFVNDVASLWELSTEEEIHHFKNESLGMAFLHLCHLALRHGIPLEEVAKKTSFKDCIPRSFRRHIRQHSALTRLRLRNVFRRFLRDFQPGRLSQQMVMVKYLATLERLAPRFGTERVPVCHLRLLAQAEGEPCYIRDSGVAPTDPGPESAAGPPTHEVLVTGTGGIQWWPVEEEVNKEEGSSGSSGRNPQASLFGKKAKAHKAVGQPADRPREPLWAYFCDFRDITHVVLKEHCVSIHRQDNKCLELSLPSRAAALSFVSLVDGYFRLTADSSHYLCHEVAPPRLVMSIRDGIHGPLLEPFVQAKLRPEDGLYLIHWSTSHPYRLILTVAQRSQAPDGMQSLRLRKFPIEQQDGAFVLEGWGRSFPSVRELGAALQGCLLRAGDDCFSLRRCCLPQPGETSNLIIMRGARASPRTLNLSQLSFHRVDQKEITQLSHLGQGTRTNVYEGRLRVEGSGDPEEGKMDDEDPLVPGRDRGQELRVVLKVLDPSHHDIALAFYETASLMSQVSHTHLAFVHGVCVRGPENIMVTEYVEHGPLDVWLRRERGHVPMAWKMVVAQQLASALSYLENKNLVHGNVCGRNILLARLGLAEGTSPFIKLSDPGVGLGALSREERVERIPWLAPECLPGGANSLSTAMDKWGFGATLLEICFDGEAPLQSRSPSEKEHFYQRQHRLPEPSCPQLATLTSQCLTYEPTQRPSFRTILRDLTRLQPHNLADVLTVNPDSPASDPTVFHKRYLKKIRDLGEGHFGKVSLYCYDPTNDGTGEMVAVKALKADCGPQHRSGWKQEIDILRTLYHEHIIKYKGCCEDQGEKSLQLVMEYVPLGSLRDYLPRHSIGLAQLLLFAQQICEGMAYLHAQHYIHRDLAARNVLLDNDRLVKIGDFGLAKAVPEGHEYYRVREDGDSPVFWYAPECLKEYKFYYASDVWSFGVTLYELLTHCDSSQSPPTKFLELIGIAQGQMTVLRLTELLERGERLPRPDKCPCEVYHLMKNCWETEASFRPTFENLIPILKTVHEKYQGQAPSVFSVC
T3 sequence (O60674 828-1132): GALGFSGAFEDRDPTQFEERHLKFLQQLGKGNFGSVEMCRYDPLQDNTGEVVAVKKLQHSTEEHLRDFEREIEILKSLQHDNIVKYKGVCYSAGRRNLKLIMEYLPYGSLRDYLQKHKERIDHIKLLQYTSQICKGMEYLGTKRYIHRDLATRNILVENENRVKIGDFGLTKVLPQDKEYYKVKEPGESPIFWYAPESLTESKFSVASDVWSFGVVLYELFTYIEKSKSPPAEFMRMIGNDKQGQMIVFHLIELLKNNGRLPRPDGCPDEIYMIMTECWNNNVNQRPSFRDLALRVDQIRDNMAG
T4 sequence (Q9UM73 19-1620): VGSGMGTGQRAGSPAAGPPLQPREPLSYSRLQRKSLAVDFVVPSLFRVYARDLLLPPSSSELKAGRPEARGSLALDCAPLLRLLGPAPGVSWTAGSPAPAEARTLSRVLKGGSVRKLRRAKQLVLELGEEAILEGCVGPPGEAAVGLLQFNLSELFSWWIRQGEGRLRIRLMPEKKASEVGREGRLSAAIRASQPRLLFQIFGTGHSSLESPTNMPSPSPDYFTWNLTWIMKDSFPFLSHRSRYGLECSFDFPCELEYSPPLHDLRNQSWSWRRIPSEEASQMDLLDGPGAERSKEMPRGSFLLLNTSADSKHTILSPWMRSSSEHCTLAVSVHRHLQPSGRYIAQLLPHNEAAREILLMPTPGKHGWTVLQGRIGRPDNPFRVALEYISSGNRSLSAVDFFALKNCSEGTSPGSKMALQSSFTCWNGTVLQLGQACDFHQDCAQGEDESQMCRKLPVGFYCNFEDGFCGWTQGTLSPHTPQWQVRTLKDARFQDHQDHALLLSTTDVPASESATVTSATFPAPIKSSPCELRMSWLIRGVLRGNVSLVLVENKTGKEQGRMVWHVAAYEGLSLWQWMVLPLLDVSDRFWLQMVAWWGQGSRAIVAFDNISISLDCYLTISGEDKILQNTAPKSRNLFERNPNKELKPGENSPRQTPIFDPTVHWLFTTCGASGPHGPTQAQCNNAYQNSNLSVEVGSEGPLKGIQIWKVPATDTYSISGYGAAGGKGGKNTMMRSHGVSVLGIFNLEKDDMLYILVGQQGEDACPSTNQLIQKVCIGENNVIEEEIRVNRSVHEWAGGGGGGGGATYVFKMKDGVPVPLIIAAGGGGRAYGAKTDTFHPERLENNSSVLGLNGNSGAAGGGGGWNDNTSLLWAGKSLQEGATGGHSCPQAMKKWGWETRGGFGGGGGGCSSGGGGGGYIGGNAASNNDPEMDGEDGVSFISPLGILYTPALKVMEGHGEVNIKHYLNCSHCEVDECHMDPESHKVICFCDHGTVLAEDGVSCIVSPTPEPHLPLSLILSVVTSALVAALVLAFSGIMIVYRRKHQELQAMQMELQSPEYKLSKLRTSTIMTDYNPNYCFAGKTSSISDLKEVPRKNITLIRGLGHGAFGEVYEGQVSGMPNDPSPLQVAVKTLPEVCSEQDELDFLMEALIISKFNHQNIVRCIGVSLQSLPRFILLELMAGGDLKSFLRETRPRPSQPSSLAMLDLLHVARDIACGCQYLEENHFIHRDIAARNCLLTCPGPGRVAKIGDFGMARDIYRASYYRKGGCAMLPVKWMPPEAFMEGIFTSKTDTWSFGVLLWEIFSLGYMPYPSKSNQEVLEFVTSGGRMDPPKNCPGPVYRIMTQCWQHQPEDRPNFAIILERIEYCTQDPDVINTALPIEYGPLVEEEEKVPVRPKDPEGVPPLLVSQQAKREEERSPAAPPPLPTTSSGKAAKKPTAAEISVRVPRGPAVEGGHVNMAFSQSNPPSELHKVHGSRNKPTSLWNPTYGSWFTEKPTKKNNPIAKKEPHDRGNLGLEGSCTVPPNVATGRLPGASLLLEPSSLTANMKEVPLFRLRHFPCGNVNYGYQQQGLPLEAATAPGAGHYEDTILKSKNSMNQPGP
T1 sequence (P23458 849-1154): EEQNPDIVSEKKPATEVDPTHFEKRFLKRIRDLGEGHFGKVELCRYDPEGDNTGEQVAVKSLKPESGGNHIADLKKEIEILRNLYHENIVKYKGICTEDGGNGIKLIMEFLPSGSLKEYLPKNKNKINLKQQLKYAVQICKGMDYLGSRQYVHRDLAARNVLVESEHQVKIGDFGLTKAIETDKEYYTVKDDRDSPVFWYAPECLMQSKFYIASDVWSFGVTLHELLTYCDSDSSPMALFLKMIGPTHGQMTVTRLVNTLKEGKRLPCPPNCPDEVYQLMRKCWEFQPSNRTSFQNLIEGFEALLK
T2 sequence (P52333 781-1124): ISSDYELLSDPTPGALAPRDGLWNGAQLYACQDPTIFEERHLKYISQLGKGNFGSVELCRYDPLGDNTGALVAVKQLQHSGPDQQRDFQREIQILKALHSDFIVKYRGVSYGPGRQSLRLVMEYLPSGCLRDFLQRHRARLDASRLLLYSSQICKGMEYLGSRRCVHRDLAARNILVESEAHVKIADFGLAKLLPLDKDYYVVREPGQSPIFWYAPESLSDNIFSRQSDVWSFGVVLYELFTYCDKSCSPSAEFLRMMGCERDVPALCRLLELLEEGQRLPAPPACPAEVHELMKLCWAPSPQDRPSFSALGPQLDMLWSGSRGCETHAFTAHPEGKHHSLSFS

IC50 [1, 5] [nM]	IC50 [2, 6] [nM]	IC50 [3, 7] [nM]	ALK % of inhibition at a concentration of 500 nM or 1 mM [4, 8] [%]	IC50 (TYK2) [nM]	SMILES	further results
2.9	4.8	1.1	79	3.4	NC(=O)COc1ccc2cc1CCc1cccc(c1)Nc1ncc(Cl)c(n1)N2 [Example A15, 2-{[6-Chloro-2,4,8,22-tetraazatetracyclo[14.3.1.1(3,7).1(9,13)]docosa-1(20),3(22),4,6,9(21),10,12,16,18-nonaen-12-yl]oxy}acetamide trifluoroacetate]	
9	7.3	11	39	17	N#CCC(=O)Nc1ccc2cc1CCc1cccc(c1)Nc1ncc(Cl)c(n1)N2 [Example A65, N-[6-Chloro-2,4,8,22-tetraazatetracyclo[14.3.1.1(3,7).1(9,13)]docosa-1(20), 3(22),4,6,9(21),10,12,16,18-nonaen-12-yl]-2-cyanoacetamide trifluoroacetate]	
					Cc1cc(C(=O)N2CCC(CN(C)Cc3ccc4cc3CCc3cncc(c3)Nc3ncc(Cl)c(n3)N4)CC2)no1 [Example B344, 1-[6-Chloro-2,4,8,18,22-pentaazatetracyclo[14.3.1.1(3,7).1(9,13)]docosa-1(20),3(22),4,6,9(21),10,12,16,18-nonaen-12-yl]-N-methyl-N-({1-[(5-methylisoxazol-3-yl)carbonyl]piperidin-4-yl}methyl)methanamine tris(trifluoroacetate)]	IC50 ([1]; Table B1): 14 nM; IC50 ([2]; Table B1): > 400 nM; IC50 ([3]; Table B1): 90 nM; ALK % of inhibition at a concentration of 500 nM or 1 mM ([4]; percentage inhibition of the example compound at a concentration of 500 nM or 1 mM (not specified which)): 43%; IC50 (TYK2; Table B1): 276 nM
					O=C(Nc1ccccc1)N1CCN(c2ccc(-c3cc4cc(c3)Nc3ncc(Cl)c(n3)Nc3cccc(c3)OCC4)cn2)CC1 [Example D42, 4-{5-[6-Chloro-14-oxa-2,4,8,23-tetraazatetracyclo[15.3.1.1(3,7).1(9,13)]tricosa-1(21),3(23),4,6,9(22),10,12,17,19-nonaen-19-yl]pyridin-2-yl}-N-phenylpiperazine-1-carboxamide bis(trifluoroacetate)]	IC50 ([1]; Table D1): 2.2 nM; IC50 ([2]; Table D1): 20 nM; IC50 ([3]; Table D1): 2.1 nM; IC50 ([4]; Table D1, 90 μM ATP): 730 nM; IC50 (TYK2; Table D1): 4 nM
12	> 200	66	37	150	O=C(CC1CCN(S(=O)(=O)c2ccco2)CC1)Nc1ccc2cc1CCc1cccc(c1)Nc1ncc(Cl)c(n1)N2 [Example A211, N-[6-Chloro-2,4,8,22-tetraazatetracyclo[14.3.1.1(3,7).1(9,13)]docosa-1(20),3(22),4,6,9(21),10,12,16,18-nonaen-12-yl]-2-[1-(2-furylsulfonyl)piperidin-4-yl]acetamide trifluoroacetate]	
7.8	> 1000	165	37	250	O=C(CC1CCN(c2ccccn2)CC1)Nc1ccc2cc1CCc1cncc(c1)Nc1ncc(Cl)c(n1)N2 [Example A170, N-[6-Chloro-2,4,8,18,22-pentaazatetracyclo[14.3.1.1(3,7).1(9,13)]docosa-1(20),3(22),4,6,9(21),10,12,16,18-nonaen-12-yl]-2-(1-pyridin-2-ylpiperidin-4-yl)acetamide tris(trifluoroacetate)]	
4	8.2	10	39	4.2	NCC(=O)Nc1ccc2cc1CCc1cccc(c1)Nc1ncc(Cl)c(n1)N2 [Example A107, 2-Amino-N-[6-chloro-2,4,8,22-tetraazatetracyclo[14.3.1.1(3,7).1(9,13)]docosa-1(20),3(22),4,6,9(21),10,12,16,18-nonaen-12-yl]acetamide bis(trifluoroacetate)]	
